Assay results published in ChEMBL document CHEMBL1201862, “PubChem BioAssay data set” (2004).
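Five compound concentrations were applied to cells in 96-well plates for 48 hours; endpoints were derived by simple linear interpolation of the resulting dose-response curve. Abbreviation: GI50, concentration required for 50% inhibition of growth.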 Activity calls are given as the source filed them. No stated cut-off is given here; in the data, active = GI50 up to about 1.1 µM and inactive = higher.

Key:
Experiment in all cases: NCI anticancer screen, dose series, 48 h
786-0 = system: 786-0
A498 = system: A498
A549 = system: A549
ACHN = system: ACHN
CAKI-1 = system: CAKI-1
COLO 205 = system: COLO 205
DU-145 = system: DU-145
EKVX = system: EKVX
HCC 2998 = system: HCC 2998
HCT-116 = system: HCT-116
HCT-15 = system: HCT-15
HL-60 = system: HL-60
HOP-62 = system: HOP-62
HOP-92 = system: HOP-92
HT-29 = system: HT-29
Hs-578T = system: Hs-578T
IGROV-1 = system: IGROV-1
K562 = system: K562
KM12 = system: KM12
M14 = system: M14
MCF7 = system: MCF7
MDA-MB-231 = system: MDA-MB-231
MDA-MB-435 = system: MDA-MB-435
MOLT-4 = system: MOLT-4
Malme-3M = system: Malme-3M
NCI-H226 = system: NCI-H226
NCI-H23 = system: NCI-H23
NCI-H460 = system: NCI-H460
NCI-H522 = system: NCI-H522
NCI/ADR-RES = system: NCI/ADR-RES
OVCAR-3 = system: OVCAR-3
OVCAR-4 = system: OVCAR-4
OVCAR-5 = system: OVCAR-5
OVCAR-8 = system: OVCAR-8
PC-3 = system: PC-3
RPMI-8226 = system: RPMI-8226
RXF 393 = system: RXF 393
SF-268 = system: SF-268
SF-295 = system: SF-295
SF-539 = system: SF-539
SK-MEL-28 = system: SK-MEL-28
SK-MEL-2 = system: SK-MEL-2
SK-MEL-5 = system: SK-MEL-5
SK-OV-3 = system: SK-OV-3
SNB-19 = system: SNB-19
SNB-75 = system: SNB-75
SR = system: SR
SW-620 = system: SW-620
T47D = system: T47D
TK-10 = system: TK-10
U-251 = system: U-251
UACC-257 = system: UACC-257
UACC-62 = system: UACC-62
UO-31 = system: UO-31
BT-549 = system: BT-549
CCRF-CEM = system: CCRF-CEM
MDA-N = system: MDA-N
SN12C = system: SN12C
LOX IMVI = system: LOX IMVI

Structure (SMILES): O=C(c1ccccc1)c1c(C(F)(F)F)[n+]([O-])c2cc(F)c(F)cc2[n+]1[O-]
- GI50 (786-0): 0.525 µM (active)
- GI50 (A498): 2.56 µM (inactive)
- GI50 (A549): 2.95 µM (inactive)
- GI50 (ACHN): 0.0929 µM (active)
- GI50 (CAKI-1): 0.807 µM (active)
- GI50 (COLO 205): 3.86 µM (inactive)
- GI50 (DU-145): 0.984 µM (active)
- GI50 (EKVX): 2.45 µM (inactive)
- GI50 (HCC 2998): 0.589 µM (active)
- GI50 (HCT-116): 0.156 µM (active)
- GI50 (HCT-15): 0.49 µM
- GI50 (HL-60): < 0.144 µM (active)
- GI50 (HOP-62): 1.25 µM (inactive)
- GI50 (HOP-92): 0.238 µM (active)
- GI50 (HT-29): 0.586 µM (active)
- GI50 (Hs-578T): 0.942 µM (active)
- GI50 (IGROV-1): 1.6 µM (inactive)
- GI50 (K562): 0.105 µM (active)
- GI50 (KM12): 1.07 µM (active)
- GI50 (M14): 0.698 µM (active)
- GI50 (MCF7): 0.349 µM (active)
- GI50 (MDA-MB-231): 0.61 µM (active)
- GI50 (MDA-MB-435): 1.53 µM (inactive)
- GI50 (MOLT-4): 0.242 µM (active)
- GI50 (Malme-3M): 0.161 µM (active)
- GI50 (NCI-H226): 1.73 µM (inactive)
- GI50 (NCI-H23): 0.211 µM (active)
- GI50 (NCI-H460): 3.21 µM (inactive)
- GI50 (NCI-H522): 0.746 µM (active)
- GI50 (NCI/ADR-RES): 0.367 µM (active)
- GI50 (OVCAR-3): 0.653 µM (active)
- GI50 (OVCAR-4): 2.07 µM (inactive)
- GI50 (OVCAR-5): 1.51 µM (inactive)
- GI50 (OVCAR-8): 0.634 µM (active)
- GI50 (PC-3): 0.716 µM (active)
- GI50 (RPMI-8226): 0.679 µM (active)
- GI50 (RXF 393): 1 µM (active)
- GI50 (SF-268): 1.32 µM (inactive)
- GI50 (SF-295): 0.946 µM (active)
- GI50 (SF-539): 0.838 µM (active)
- GI50 (SK-MEL-28): 1.26 µM (inactive)
- GI50 (SK-MEL-2): 1.79 µM (inactive)
- GI50 (SK-MEL-5): 0.877 µM (active)
- GI50 (SK-OV-3): 5.97 µM (inactive)
- GI50 (SNB-19): 4.05 µM (inactive)
- GI50 (SNB-75): 1.95 µM (inactive)
- GI50 (SR): < 0.01 µM (active)
- GI50 (SW-620): 0.499 µM (active)
- GI50 (T47D): 1.79 µM (inactive)
- GI50 (TK-10): 0.195 µM (active)
- GI50 (U-251): 0.377 µM (active)
- GI50 (UACC-257): 1.79 µM (inactive)
- GI50 (UACC-62): 2.22 µM (inactive)
- GI50 (UO-31): 1.38 µM (inactive)

Structure (SMILES): CC1(C)/C(=N\O)C2(OS(=O)(=O)C(F)(F)F)CCC1C2 (centres undefined)
- GI50 (A498): > 100 µM (inactive)
- GI50 (ACHN): > 100 µM (inactive)
- GI50 (BT-549): > 100 µM (inactive)
- GI50 (CAKI-1): > 100 µM (inactive)
- GI50 (CCRF-CEM): > 100 µM (inactive)
- GI50 (EKVX): > 100 µM (inactive)
- GI50 (HCC 2998): > 100 µM (inactive)
- GI50 (HCT-15): > 100 µM
- GI50 (HL-60): 12 µM (inactive)
- GI50 (HOP-92): > 100 µM (inactive)
- GI50 (KM12): > 100 µM (inactive)
- GI50 (MDA-MB-231): > 100 µM (inactive)
- GI50 (MDA-MB-435): 60.1 µM (inactive)
- GI50 (MDA-N): > 100 µM (inactive)
- GI50 (MOLT-4): > 100 µM (inactive)
- GI50 (NCI-H226): 70.8 µM (inactive)
- GI50 (NCI-H23): > 100 µM (inactive)
- GI50 (NCI-H460): > 100 µM (inactive)
- GI50 (NCI/ADR-RES): > 100 µM (inactive)
- GI50 (OVCAR-4): > 100 µM (inactive)
- GI50 (OVCAR-8): > 100 µM (inactive)
- GI50 (RPMI-8226): 27.4 µM (inactive)
- GI50 (SF-268): > 100 µM (inactive)
- GI50 (SK-MEL-28): > 100 µM (inactive)
- GI50 (SN12C): > 100 µM (inactive)
- GI50 (SNB-19): > 100 µM (inactive)
- GI50 (SNB-75): > 100 µM (inactive)
- GI50 (SR): 55.1 µM (inactive)
- GI50 (TK-10): > 100 µM (inactive)
- GI50 (U-251): > 100 µM (inactive)
- GI50 (UACC-257): > 100 µM (inactive)
- GI50 (UACC-62): > 100 µM (inactive)
- GI50 (UO-31): > 100 µM (inactive)

Structure (SMILES): CC(C)(C)C(=O)Nc1c(C=O)ccc2[nH]cnc12
- GI50 (786-0): > 100 µM (inactive)
- GI50 (A498): > 100 µM (inactive)
- GI50 (A549): > 100 µM (inactive)
- GI50 (ACHN): > 100 µM (inactive)
- GI50 (BT-549): > 100 µM (inactive)
- GI50 (CAKI-1): 75.7 µM (inactive)
- GI50 (CCRF-CEM): 33.3 µM (inactive)
- GI50 (COLO 205): > 100 µM (inactive)
- GI50 (EKVX): > 100 µM (inactive)
- GI50 (HCC 2998): > 100 µM (inactive)
- GI50 (HCT-116): > 100 µM (inactive)
- GI50 (HCT-15): > 100 µM
- GI50 (HOP-62): 61.8 µM (inactive)
- GI50 (HOP-92): > 100 µM (inactive)
- GI50 (IGROV-1): > 100 µM (inactive)
- GI50 (K562): 42.8 µM (inactive)
- GI50 (KM12): 80.4 µM (inactive)
- GI50 (LOX IMVI): 62.8 µM (inactive)
- GI50 (M14): > 100 µM (inactive)
- GI50 (MCF7): 60.1 µM (inactive)
- GI50 (MDA-MB-231): > 100 µM (inactive)
- GI50 (MDA-MB-435): > 100 µM (inactive)
- GI50 (MDA-N): > 100 µM (inactive)
- GI50 (MOLT-4): 30.5 µM (inactive)
- GI50 (NCI-H226): > 100 µM (inactive)
- GI50 (NCI-H23): > 100 µM (inactive)
- GI50 (NCI-H460): > 100 µM (inactive)
- GI50 (NCI-H522): > 100 µM (inactive)
- GI50 (NCI/ADR-RES): > 100 µM (inactive)
- GI50 (OVCAR-3): 80.9 µM (inactive)
- GI50 (OVCAR-4): > 100 µM (inactive)
- GI50 (OVCAR-5): > 100 µM (inactive)
- GI50 (OVCAR-8): > 100 µM (inactive)
- GI50 (PC-3): 74.3 µM (inactive)
- GI50 (RPMI-8226): 89.9 µM (inactive)
- GI50 (RXF 393): > 100 µM (inactive)
- GI50 (SF-268): > 100 µM (inactive)
- GI50 (SF-295): > 100 µM (inactive)
- GI50 (SF-539): > 100 µM (inactive)
- GI50 (SK-MEL-28): > 100 µM (inactive)
- GI50 (SK-MEL-2): > 100 µM (inactive)
- GI50 (SK-MEL-5): 78.7 µM (inactive)
- GI50 (SK-OV-3): > 100 µM (inactive)
- GI50 (SN12C): > 100 µM (inactive)
- GI50 (SNB-19): > 100 µM (inactive)
- GI50 (SNB-75): > 100 µM (inactive)
- GI50 (SW-620): > 100 µM (inactive)
- GI50 (T47D): > 100 µM (inactive)
- GI50 (TK-10): > 100 µM (inactive)
- GI50 (U-251): 82.4 µM (inactive)
- GI50 (UACC-257): 91.4 µM (inactive)
- GI50 (UO-31): > 100 µM (inactive)
